Data taken from patent publication US20210395262A1, “INHIBITORS OF HUMAN IMMUNODEFICIENCY VIRUS REPLICATION” (ViiV HEALTHCARE UK (NO.5) LIMITED, priority 2018, published 2021).
Read-outs that look alike come from different tables or passages of the source.

Key:
recombinant NL4-3 virus = test: HIV cell culture assay (antiviral activity, luciferase readout in MT-2 cells); type: cell-based; settings: Human immunodeficiency virus 1, NL43, MT2
Description: HIV cell culture assay—MT-2 cells, 293T cells and the proviral DNA clone of NL4-3 virus were obtained from the […] AIDS Research and Reference Reagent Program. MT-2 cells were propagated in RPMI 1640 media supplemented with 10% heat inactivated fetal bovine serum (FBS), […] penicillin G and up to 100 units/mL streptomycin. The 293T cells were propagated in DMEM media supplemented with 10% heat inactivated FBS, […] penicillin G and […] streptomycin. A recombinant NL4-3 proviral clone, in which a section of the nef gene was replaced with the Renilla luciferase gene, was used to make the reference virus used in these studies. The recombinant virus was prepared through transfection of the recombinant NL4-3 proviral clone into 293T cells using Transit-293 Transfection Reagent from Mirus Bio LLC (Madison, Wis.). Supernatent was harvested after 2-3 days and the amount of virus present was titered in MT-2 cells using luciferase enzyme activity as a marker by measuring luciferase enzyme activity. Luciferase was quantitated using the EnduRen Live Cell Substrate from Promega (Madison, Wis.). Antiviral activities of compounds toward the recombinant virus were quantified by measuring luciferase activity in MT-2 cells infected for 4-5 days with the recombinant virus in the presence of serial dilutions of the compound.
The 50% effective concentration (EC50) was calculated by using the exponential form of the median effect equation where (Fa)=1/[1+(ED50/drug conc.)m] (Johnson V A, Byington R T. Infectivity Assay. In Techniques in HIV Research. ed. Aldovini A, Walker B D. 71-76. New York: Stockton Press. 1990). The 50% inhibitory concentration (EC50) was calculated by using the exponential form of the median effect equation where percent inhibition=1/[1+(EC50/drug concentration)m], where m is a parameter that reflects the slope of the concentration-response curve.

[1] = Compound cytotoxicity, XTT-based colorimetric assay; type: cell-based; settings: human
Description: Compound cytotoxicity and the corresponding CC50 values were determined using the same protocol as described in the antiviral assay except that uninfected cells were used. Cytotoxicity was assessed on day 4 in uninfected MT2 cells by using a XTT (2,3-bis[2-Methoxy-4-nitro-5-sulfophenyl]-2H-tetrazolium-5-carboxyanilide inner salt)-based colorimetric assay (Sigma-Aldrich, St Louis, Mo.).

[2] = uninfected MT2 cells, day 4, XTT, read-out: CC50

| SMILES | EC50 (recombinant NL4-3 virus) [nM] | CC50 at 4 days [1, 2] [nM] | CC50 at 4 days [1] [nM] |
| --- | --- | --- | --- |
| CS(=O)(=O)Nc1nn(CC(F)F)c2c(-n3c([C@H](Cc4cc(F)cc(F)c4)NC(=O)Cn4nc(C(F)F)c5c4C(F)(F)[C@@H]4C[C@H]54)nc4cc(N5CCOCC5)ccc4c3=O)ccc(Cl)c12 (atropisomer, axis not shown; (P)) [Example 7, N—((S)-1-((3P)-3-(4-chloro-1-(2,2-difluoroethyl)-3-(methylsulfonamido)-1H-indazol-7-yl)-7-morpholino-4-oxo-3,4-dihydroquinazolin-2-yl)-2-(3,5-difluorophenyl)ethyl)-2-((3bS,4aR)-3-(difluoromethyl)-5,5-difluoro-3b,4,4a,5-tetrahydro-1H-cyclopropa[3,4]cyclopenta[1,2-c]pyrazol-1-yl)acetamide] | 0.085 | > 500 |  |
| Cn1nc(NS(C)(=O)=O)c2c(Cl)ccc(-n3c([C@H](Cc4cc(F)cc(F)c4)NC(=O)Cn4nc(C(F)F)c5c4C(F)(F)[C@@H]4C[C@H]54)nc4cc(N5CC6(COC6)C5)ccc4c3=O)c21 (atropisomer, axis not shown; (P)) [Example 21, N—((S)-1-((3P)-3-(4-chloro-1-methyl-3-(methylsulfonamido)-1H-indazol-7-yl)-4-oxo-7-(2-oxa-6-azaspiro[3.3]heptan-6-yl)-3,4-dihydroquinazolin-2-yl)-2-(3,5-difluorophenyl)ethyl)-2-((3bS,4aR)-3-(difluoromethyl)-5,5-difluoro-3b,4,4a,5-tetrahydro-1H-cyclopropa[3,4]cyclopenta[1,2-c]pyrazol-1-yl)acetamide] | 0.064 | > 500 |  |
| COC1CCCN(c2ccc3c(=O)n(-c4ccc(Cl)c5c(NS(C)(=O)=O)nn(C)c45)c([C@H](Cc4cc(F)cc(F)c4)NC(=O)Cn4nc(C(F)F)c5c4C(F)(F)[C@@H]4C[C@H]54)nc3c2)C1 (stereo partly drawn) [Example 29, N-((1S)-1-((3P)-3-(4-chloro-1-methyl-3-(methylsulfonamido)-1H-indazol-7-yl)-7-(3-methoxypiperidin-1-yl)-4-oxo-3,4-dihydroquinazolin-2-yl)-2-(3,5-difluorophenyl)ethyl)-2-((3bS,4aR)-3-(difluoromethyl)-5,5-difluoro-3b,4,4a,5-tetrahydro-1H-cyclopropa[3,4]cyclopenta[1,2-c]pyrazol-1-yl)acetamide] | 0.052 | > 500 |  |
| CCCS(=O)(=O)Nc1nn(C)c2c(-n3c([C@H](Cc4cc(F)cc(F)c4)NC(=O)Cn4nc(C(F)F)c5c4C(F)(F)[C@@H]4C[C@H]54)nc4cc(N5CCOCC5)ccc4c3=O)ccc(Cl)c12 (atropisomer, axis not shown; (P)) [Example 66, N—((S)-1-((3P)-3-(4-chloro-1-methyl-3-(propylsulfonamido)-1H-indazol-7-yl)-7-morpholino-4-oxo-3,4-dihydroquinazolin-2-yl)-2-(3,5-difluorophenyl)ethyl)-2-((3bS,4aR)-3-(difluoromethyl)-5,5-difluoro-3b,4,4a,5-tetrahydro-1H-cyclopropa[3,4]cyclopenta[1,2-c]pyrazol-1-yl)acetamide] | 0.066 | > 500 |  |
| C[C@@H]1CN(c2ccc3c(=O)n(-c4ccc(Cl)c5c(NS(C)(=O)=O)nn(CC(F)(F)F)c45)c([C@H](Cc4cc(F)cc(F)c4)NC(=O)Cn4nc(C(F)F)c5c4C(F)(F)[C@@H]4C[C@H]54)nc3c2)C[C@H](C)O1 (atropisomer, axis not shown; (P)) [Example 58, N—((S)-1-((3P)-3-(4-chloro-3-(methylsulfonamido)-1-(2,2,2-trifluoroethyl)-1H-indazol-7-yl)-7-((2S,6R)-2,6-dimethylmorpholino)-4-oxo-3,4-dihydroquinazolin-2-yl)-2-(3,5-difluorophenyl)ethyl)-2-((3bS,4aR)-3-(difluoromethyl)-5,5-difluoro-3b,4,4a,5-tetrahydro-1H-cyclopropa[3,4]cyclopenta[1,2-c]pyrazol-1-yl)acetamide] | 0.053 | > 500 |  |
| C[C@@H]1CN(c2ccc3c(=O)n(-c4ccc(Cl)c5c(NS(=O)(=O)C6CC6)nn(CC(F)(F)F)c45)c([C@H](Cc4cc(F)cc(F)c4)NC(=O)Cn4nc(C(F)(F)F)c5c4C(F)(F)[C@@H]4C[C@H]54)nc3c2)C[C@H](C)O1 (atropisomer, axis not shown; (P)) [Example 63, N—((S)-1-((3P)-3-(4-chloro-3-(cyclopropanesulfonamido)-1-(2,2,2-trifluoroethyl)-1H-indazol-7-yl)-7-((2S,6R)-2,6-dimethylmorpholino)-4-oxo-3,4-dihydroquinazolin-2-yl)-2-(3,5-difluorophenyl)ethyl)-2-((3bS,4aR)-5,5-difluoro-3-(trifluoromethyl)-3b,4,4a,5-tetrahydro-1H-cyclopropa[3,4]cyclopenta[1,2-c]pyrazol-1-yl)acetamide] | 0.15 | > 500 |  |
| Cn1nc(NS(C)(=O)=O)c2c(Cl)ccc(-n3c([C@H](Cc4cc(F)cc(F)c4)NC(=O)Cn4nc(C(F)F)c5c4C(F)(F)[C@@H]4C[C@H]54)nc4cc(N5C6COCC5COC6)ccc4c3=O)c21 [Example 6, N—((S)-1-(7-(3,7-dioxa-9-azabicyclo[3.3.1]nonan-9-yl)-(3P)-3-(4-chloro-1-methyl-3-(methylsulfonamido)-1H-indazol-7-yl)-4-oxo-3,4-dihydroquinazolin-2-yl)-2-(3,5-difluorophenyl)ethyl)-2-((3bS,4aR)-3-(difluoromethyl)-5,5-difluoro-3b,4,4a,5-tetrahydro-1H-cyclopropa[3,4]cyclopenta[1,2-c]pyrazol-1-yl)acetamide] | 0.145 |  | > 500 |
| Cn1nc(NS(C)(=O)=O)c2c(Cl)ccc(-n3c([C@H](Cc4cc(F)cc(F)c4)NC(=O)Cn4nc(C(F)F)c5c4C(F)(F)[C@@H]4C[C@H]54)nc4cc(N5CCC(S(C)(=O)=O)CC5)ccc4c3=O)c21 (atropisomer, axis not shown; (P)) [Example 30, N—((S)-1-((3P)-3-(4-chloro-1-methyl-3-(methylsulfonamido)-1H-indazol-7-yl)-7-(4-(methylsulfonyl)piperidin-1-yl)-4-oxo-3,4-dihydroquinazolin-2-yl)-2-(3,5-difluorophenyl)ethyl)-2-((3bS,4aR)-3-(difluoromethyl)-5,5-difluoro-3b,4,4a,5-tetrahydro-1H-cyclopropa[3,4]cyclopenta[1,2-c]pyrazol-1-yl)acetamide] | 0.381 | > 500 |  |
| COC[C@@H]1CCCN1c1ccc2c(=O)n(-c3ccc(Cl)c4c(NS(C)(=O)=O)nn(C)c34)c([C@H](Cc3cc(F)cc(F)c3)NC(=O)Cn3nc(C(F)F)c4c3C(F)(F)[C@@H]3C[C@H]43)nc2c1 (atropisomer, axis not shown; (P)) [Example 3, N—((S)-1-((3P)-3-(4-chloro-1-methyl-3-(methylsulfonamido)-1H-indazol-7-yl)-7-((S)-2-(methoxymethyl)pyrrolidin-1-yl)-4-oxo-3,4-dihydroquinazolin-2-yl)-2-(3,5-difluorophenyl)ethyl)-2-((3bS,4aR)-3-(difluoromethyl)-5,5-difluoro-3b,4,4a,5-tetrahydro-1H-cyclopropa[3,4]cyclopenta[1,2-c]pyrazol-1-yl)acetamide] | 0.175 | > 500 |  |
| O=C(Cn1nc(C(F)F)cc1C1CC1)N[C@@H](Cc1cc(F)cc(F)c1)c1nc2cc(N3CCOCC3)ccc2c(=O)n1-c1ccc(Cl)c2c(NS(=O)(=O)C3CC3)nn(CC(F)F)c12 (atropisomer, axis not shown; (P)) [Example 40, (S)—N-(1-((3P)-3-(4-chloro-3-(cyclopropanesulfonamido)-1-(2,2-difluoroethyl)-1H-indazol-7-yl)-7-morpholino-4-oxo-3,4-dihydroquinazolin-2-yl)-2-(3,5-difluorophenyl)ethyl)-2-(5-cyclopropyl-3-(difluoromethyl)-1H-pyrazol-1-yl)acetamide] | 0.361 | > 1000 |  |
| Cn1nc(NS(C)(=O)=O)c2c(Cl)ccc(-n3c([C@H](Cc4cc(F)cc(F)c4)NC(=O)Cn4nc(C(F)F)c5c4C(F)(F)[C@@H]4C[C@H]54)nc4cc(N5CC=CC5)ccc4c3=O)c21 (atropisomer, axis not shown; (P)) [Example 31, N—((S)-1-((3P)-3-(4-chloro-1-methyl-3-(methylsulfonamido)-1H-indazol-7-yl)-7-(2,5-dihydro-1H-pyrrol-1-yl)-4-oxo-3,4-dihydroquinazolin-2-yl)-2-(3,5-difluorophenyl)ethyl)-2-((3bS,4aR)-3-(difluoromethyl)-5,5-difluoro-3b,4,4a,5-tetrahydro-1H-cyclopropa[3,4]cyclopenta[1,2-c]pyrazol-1-yl)acetamide] | 0.127 | > 500 |  |
